Values of other authors as cited in patent publication US7825159B2, “Mixtures of aromatic esters for marking or tagging organic products, marker compositions comprising the same and manufacturing methods thereof” (United Color Manufacturing, Inc., priority 2006, dated 2010).

How the values were obtained:
[1] = with less than 28 wt. % n-octylpyrolidinone co-solvent, even with vigorous stirring
[2] = with less than 28 wt. % n-octylpyrolidinone co-solvent

- Dispersion into diesel fuel [1]: will not disperse
- Precipitation on standing overnight in the freezer [2]: precipitates
Structure (SMILES): CCCC(=O)Oc1ccc(C2(c3ccc(OC(=O)CCC)c(C)c3)OC(=O)c3ccccc32)cc1C [Cresolphthalein dibutyrate]
